Starred links: 1 amine or outer side, 2 acyl side, 3 side chain; linkers in the order of their positions; H or OH if unused. Non-standard residues stand in square brackets, D forms with d. Residues, ends and D or L forms follow the SMILES beside them. Groups on a side chain read outwards from the residue. *: point of attachment. C20 diacid = O=C(O)CCCCCCCCCCCCCCCCCCC(=O)*; γGlu = O=C(O)[C@H](CCC(=O)[*:2])N[*:1]; NMeI = CC[C@H](C)[C@H](NC)C(=O)O; Nle = CCCC[C@H](N)C(=O)O; AEEA = NCCOCCOCC(=O)O; Aib = CC(C)(N)C(=O)O
Experiments:
[1] = PK in minipigs; conditions: male, Göttingen, minipig, in vivo
Procedure: Pharmacokinetics studies were determined in male Göttingen minipigs from Ellegaard Göttingen Minipigs A/S. Animals were acclimatised for at least 7 days before placed on study. The minipigs had prior to study been surgically implanted with central venous catheters inserted which were used for blood sampling. Animals were housed under a 12/12 h dark-light cycle with ad libitum access to domestic water and animals were fed a commercially standard maintenance diet twice daily.
Test compounds where administrated either as a cassette or as a single compound. Test compounds were administrated by a single intravenous injection or short infusion (5-10 min) through the implanted catheter or a single subcutaneously injection. The subcutaneously injection was given in the mid neck between ear and scapula with a stopper on the needle, allowing 0.5 cm of the needle to be inserted.Plasma concentration-time profiles employing 12-16 sampling points were obtained from each animal. As an example, blood samples were collected on the following times: 0 (predose), 0.17, 0.33, 0.5, 1, 2, 5, 6, 24, 48, 72, 92, 168, 240 and 336 hrs post administration. Approximately 2 mL blood was drawn from the central catheter from each animal at each sampling point. Blood samples were taken in K2 or K3 EDTA tubes. Blood was kept on ice for maximum 30 min before centrifugation (10 min, 4°C, 2000 x g). Approximately 200 µL plasma samples was transferred to a Micronic tube and stored at -20° or lower.
Pharmacokinetics parameters were calculated by non-compartmental analysis (NCA) of the individual plasma concentrations-time profile from the animals. The log-linear trapezoidal method was used for estimation of AUC and AUMC. The terminal T½ was determined as In(2)/λz where λz is the first order rate constant as determined by the terminal log-linear part of the curve.
Plasma concentrations were measured by LC-MSMS using electrospray ionization and multiple reaction monitoring. Calibration standards and quality control (QC) samples were prepared in specie match matrix. 15 µL calibration standards, QC and study samples were extracted by protein precipitation using 60 µL methanol followed by addition of 45 µL milliQ water. Samples were shaken (800 rpm) at room temperature for 5 min before centrifugation (2570×g, 40 min, 4°C) and the supernatant was transferred to a LoBind PCR plate. Samples were analysed on a Thermo Triscend UHPLC system coupled to a Sciex API 6500+ mass spectrometer. Samples were subject to online SPE clean-up on a HLB column (1×50 mm, Waters) before loaded onto a Aeris Peptide XB C18 column (3.6 µm, 100 Å, 2×50 mm, Phenomenex) analytical column. The mobile phases consisted of acetonitrile and milliQ H2O both containing 0.1% V/V formic acid. The flow rate was 0.60 mL/min and the column was kept at room temperature.

[2] = tested on: pCRHR1; assay: cAMP potency, transiently transfected CHO-K1 cells, pCRHR1; type: cell-based, pig; conditions: transiently transfected CHO-K1, average n=3; read-out: Transient cell system EC50 (nM) pCRHR 1
Procedure: (§1) Selected peptides were tested for potency on different species (mouse, rat, porcine) using transiently transfected CHO-K1 cells using the general procedure.

[3] = Acute effects on hemodynamics in anesthetized pigs; type: in vivo, Göttingen minipigs; conditions: anesthetized minipigs, ascending doses
Procedure: Göttingen minipigs were anesthetized and instrumented to continuous monitor hemodynamics during baseline measurement (0.5h), vehicle treatment (0.5h) and ascending doses of SEQ ID NO: 215 each 0.5 hours (10, 30, 100 and 300 µg/kg/min) and compared to a similar setup using Dobutamine (1, 3, 10 and 20 µg/kg/min) and vehicle (NaCl).

[4] = biological target: T1, mCRHR2 (Mus musculus, UniProt Q60748); assay: cAMP potency, transiently transfected CHO-K1 cells, mCRHR2; type: cell-based; conditions: transiently transfected CHO-K1, average n=3; read-out: Transient cell system EC50 (nM) mCRH R2
T1 construct: DYK (FLAG); host or cells: CHO-K1, transiently transfected
Procedure: as §1

T1 sequence (Q60748 1-431 isoform Q60748-2): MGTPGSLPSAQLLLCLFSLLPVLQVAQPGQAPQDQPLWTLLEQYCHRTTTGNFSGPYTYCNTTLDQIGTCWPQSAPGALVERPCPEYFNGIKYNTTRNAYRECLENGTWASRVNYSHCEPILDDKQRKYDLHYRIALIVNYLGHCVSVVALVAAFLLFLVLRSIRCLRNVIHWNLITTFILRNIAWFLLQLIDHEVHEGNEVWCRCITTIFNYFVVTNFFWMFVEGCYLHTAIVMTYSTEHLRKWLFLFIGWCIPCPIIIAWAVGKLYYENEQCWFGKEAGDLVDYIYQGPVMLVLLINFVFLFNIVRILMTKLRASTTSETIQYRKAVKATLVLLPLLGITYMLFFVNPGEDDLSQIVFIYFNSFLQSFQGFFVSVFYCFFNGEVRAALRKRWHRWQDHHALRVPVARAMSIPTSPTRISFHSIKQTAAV

## CCCC[C@H](NC(=O)[C@@H](NC(=O)[C@H](CCC(=O)O)NC(=O)C(C)(C)NC(=O)[C@H](CC(N)=O)NC(=O)[C@@H](NC(=O)[C@H](CCCCNC(=O)COCCOCCNC(=O)COCCOCCNC(=O)CC[C@H](NC(=O)CC[C@H](NC(=O)CCCCCCCCCCCCCCCCCCC(=O)O)C(=O)O)C(=O)O)NC(=O)[C@H](C)NC(=O)[C@H](CCC(N)=O)NC(=O)[C@H](CCC(=O)O)NC(=O)[C@H](CCCNC(=N)N)NC(=O)[C@H](C)NC(=O)[C@H](C)NC(=O)[C@H](CCCNC(=N)N)NC(=O)[C@H](C)NC(=O)[C@H](CCCNC(=N)N)NC(=O)[C@H](C)NC(=O)[C@H](CCC(N)=O)NC(=O)[C@H](CO)NC(=O)[C@H](CC(C)C)NC(=O)[C@H](CC(C)C)NC(=O)[C@@H](NC(=O)[C@H](CCC(N)=O)NC(=O)[C@H](CC(C)C)NC(=O)[C@H](CC(C)C)NC(=O)CNC(=O)[C@@H](NC(=O)[C@@H]1CCCN1C(=O)[C@@H](NC(=O)[C@H](CC(=O)O)NC(=O)[C@H](CC(C)C)NC(=O)[C@H](CO)NC(=O)[C@H](CC(C)C)NC(=O)[C@@H](NC(=O)[C@@H](NC)[C@@H](C)CC)C(C)C)C(C)C)[C@@H](C)CC)[C@@H](C)CC)[C@@H](C)O)[C@@H](C)CC)C(=O)N[C@@H](C)C(=O)N[C@@H](CCC(=O)O)C(=O)N[C@H](C(N)=O)C(C)C [SEQ ID NO: 215] (H-[NMeI]VLSLDVPIGLLQILLSQARARAAREQAK([AEEA-AEEA-γGlu-γGlu-C20 diacid])TN[Aib]EI[Nle]AEV-NH2)
[1]; iv, Pig, 4.2 nmol/kg i.v.
  clearance: 7.2 mL/day/kg
[1]; iv, Pig, 4.2 nmol/kg i.v., read-out: T½ (converted)
  half-life: 156 h
[1]; sc
  bioavailability: 68%
[1]; sc, Pig, 6.0 nmol/kg s.c
  Cmax: 38 nM
  Tmax: 24 h
[2]
  EC50: > 1000 nM
[3]; Fig. 11A
  inotropic effects (contractility): positive inotropic effects
[3]; Fig. 11B
  coronary blood flow: increasing
[3]; Figs. 11C and 11D
  O2 consumption (rate pressure product): increasing
[4]
  EC50: 0.004 nM
